Among the data in PubChem BioAssay AID1918944 (Molecular Pharmacology Branch, DTP, NCI, 2023) are IC50, viability, T/C and outcome values, retold here.

“And” between values parts separate entries of the source, which are not always exact repeats. Equal values may be shown once. The source made the active and inactive calls. How the source made its calls: active means viability on the fitted dose curve at most 10% of control; inactive means the rest.

The assay relates to 786-0 complex spheroid viability. As to the kind of experiment: Anticancer human tumor 786-0 cell line growth inhibition.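 On all read-outs here: spheroids exposed to agents for seven days before readout.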 As to conditions: for viability, T/C: stronger effect = lower value. Summed up: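 Multicellular complex spheroids of tumor cells with human endothelial cells (HUVEC) and mesenchymal stem cells; the LSD1 inhibitor iadademstat was combined with standard-of-care or investigational agents. Top concentration at or near clinical Cmax, half-log dilutions; final DMSO ≤0.25%.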

The mark [1] stands for this setting: curve of first compound, second compound 0.1 µM.
Where [2] appears, read: curve of first compound, second compound 0.316 µM.
Where [3] appears, read: curve of first compound, second compound 1 µM.
The mark [4] stands for this setting: curve of first compound, second compound 3.16 µM.
Where [5] appears, read: curve of first compound, second compound 10 µM.
Where [6] appears, read: second compound 0.1 µM, first compound 0.0316 µM.
The mark [7] stands for this setting: second compound 0.1 µM, first compound 0.1 µM.
Where [8] appears, read: second compound 0.316 µM, first compound 0.0316 µM.
Where [9] appears, read: second compound 0.316 µM, first compound 0.1 µM.
Where [10] appears, read: second compound 1 µM, first compound 0.0316 µM.
Setting [11] is: second compound 1 µM, first compound 0.1 µM.
Setting [12] is: second compound 3.16 µM, first compound 0.0316 µM.
Where [13] appears, read: second compound 3.16 µM, first compound 0.1 µM.
Where [14] appears, read: second compound 10 µM, first compound 0.0316 µM.
Setting [15] is: second compound 10 µM, first compound 0.1 µM.
[16] abbreviates: second compound 0.1 µM, first compound 0.316 µM.
Setting [17] is: second compound 0.1 µM, first compound 1 µM.
Where [18] appears, read: second compound 0.1 µM, first compound 3.16 µM.
Where [19] appears, read: second compound 0.1 µM, first compound 10 µM.
[20] abbreviates: second compound 0.316 µM, first compound 0.316 µM.
Setting [21] is: second compound 0.316 µM, first compound 1 µM.
The mark [22] stands for this setting: second compound 0.316 µM, first compound 3.16 µM.
Where [23] appears, read: second compound 0.316 µM, first compound 10 µM.
[24] abbreviates: second compound 1 µM, first compound 0.316 µM.
Setting [25] is: second compound 1 µM, first compound 1 µM.
Where [26] appears, read: second compound 1 µM, first compound 3.16 µM.
Where [27] appears, read: second compound 1 µM, first compound 10 µM.
Where [28] appears, read: second compound 3.16 µM, first compound 0.316 µM.
[29] abbreviates: second compound 3.16 µM, first compound 1 µM.
Where [30] appears, read: second compound 3.16 µM, first compound 3.16 µM.
The mark [31] stands for this setting: second compound 3.16 µM, first compound 10 µM.
[32] abbreviates: second compound 10 µM, first compound 0.316 µM.
Setting [33] is: second compound 10 µM, first compound 1 µM.
The mark [34] stands for this setting: second compound 10 µM, first compound 3.16 µM.
The mark [35] stands for this setting: second compound 10 µM, first compound 10 µM.

Turning to `CC[C@@]1(O)C(=O)OCc2c1cc1n(c2=O)Cc2cc3c(CN(C)C)c(O)ccc3nc2-1` + NC1CC1c1ccc(-c2cccc(O)c2)cc1, the IC50 runs as follows: under setting [1], 5.02 nM; under setting [2], 4.87 nM; under setting [3], 4.86 nM; under setting [4], 4.67 nM; under setting [5], 4.02 nM. The viability, T/C by setting is: (second compound 0.1 µM, first compound 0.000316 µM) 112%; (second compound 0.1 µM, first compound 0.001 µM) 109%; (second compound 0.1 µM, first compound 0.00316 µM) 74.6%; (second compound 0.1 µM, first compound 0.01 µM) 13.2%; under setting [6], 6.23%; under setting [7], 2.94%. Besides, the viability, T/C was 109% (second compound 0.316 µM, first compound 0.000316 µM); 105% (second compound 0.316 µM, first compound 0.001 µM); 73.6% (second compound 0.316 µM, first compound 0.00316 µM); 10.7% (second compound 0.316 µM, first compound 0.01 µM); 4.65% under setting [8]; 3.46% under setting [9]. Moreover, the viability, T/C (second compound 1 µM, first compound 0.000316 µM) was 119%; the viability, T/C (second compound 1 µM, first compound 0.001 µM) is 109%; the viability, T/C (second compound 1 µM, first compound 0.00316 µM) was 73.4%; the viability, T/C (second compound 1 µM, first compound 0.01 µM) is 10.8%; the viability, T/C under setting [10] is 4.54%; the viability, T/C under setting [11] is 2.99%. Besides, the viability, T/C runs as follows: (second compound 3.16 µM, first compound 0.000316 µM) 107%; (second compound 3.16 µM, first compound 0.001 µM) 107%; (second compound 3.16 µM, first compound 0.00316 µM) 70%; (second compound 3.16 µM, first compound 0.01 µM) 10.8%; under setting [12], 5.39%; under setting [13], 2.22%. Besides, the viability, T/C by setting is: (second compound 10 µM, first compound 0.000316 µM) 104%; (second compound 10 µM, first compound 0.001 µM) 109%; (second compound 10 µM, first compound 0.00316 µM) 61%; (second compound 10 µM, first compound 0.01 µM) 8.93%; under setting [14], 3.25%; under setting [15], 2.9%.

As to `CCN(c1cc(-c2ccc(CN3CCOCC3)cc2)cc(C(=O)NCc2c(C)cc(C)[nH]c2=O)c1C)C1CCOCC1`, the viability, T/C reads like this: (compound 0.00949 µM) 100%; (compound 0.03 µM) 103% and 105%; (compound 0.0949 µM) 106% and 100%; (compound 0.3 µM) 104% and 102%; (compound 0.949 µM) 102% and 98%; (compound 3 µM) 97.4% and 96.9%. For the same compound, the IC50 (curve of compound) was above 3000 nM.

`Nc1ccn(C2OC(CO)C(O)C2(F)F)c(=O)n1` (configuration not stated): the viability, T/C (compound 0.000949 µM) was 10.4% and 19.8%; the viability, T/C (compound 0.003 µM) was 4.3% and 7%; the viability, T/C (compound 0.00949 µM) was 4.25%; the viability, T/C (compound 0.03 µM) was 4.55% and 6.65%; the viability, T/C (compound 0.0949 µM) was 4.92% and 6.2%; the viability, T/C (compound 0.3 µM) is 6.14% and 6.43%. For the same compound, the result (compound 0.00949 µM) was active. The IC50 (curve of compound) is below 0.949 nM.

Take `COc1ccc([C@@H](O)c2cc(-c3ncnc4cc(N5CCOCC5)ccc34)c(F)cc2Cl)nn1`: the viability, T/C reads like this: (compound 0.0316 µM) 105% and 102%; (compound 0.1 µM) 105% and 103%; (compound 0.316 µM) 107% and 99.3%; (compound 1 µM) 94.2% and 89.3%; (compound 3.16 µM) 66.3% and 59.2%; (compound 10 µM) 42.8% and 42.1%. Further, where the note is “curve of compound”, the IC50 was 7010 nM and 5890 nM.

On to `CC1COCCN1c1cc(C2(S(C)(=N)=O)CC2)nc(-c2ccnc3[nH]ccc23)n1` (configuration not stated) + NC1CCC(NC2CC2c2ccccc2)CC1, for which the IC50 came out at 886 nM under setting [1]; 792 nM under setting [2]; 795 nM under setting [3]; 604 nM under setting [4]; 294 nM under setting [5]. Moreover, the viability, T/C runs as follows: under setting [6], 118%; under setting [7], 114%; under setting [16], 104%; under setting [17], 43%; under setting [18], 15.3%; under setting [19], 6.76%. Besides, the viability, T/C is, setting by setting: under setting [8], 125%; under setting [9], 116%; under setting [20], 93.4%; under setting [21], 38.1%; under setting [22], 14.7%; under setting [23], 6.62%. For the same compound, the viability, T/C is 112% under setting [10]; 116% under setting [11]; 89.2% under setting [24]; 40% under setting [25]; 13% under setting [26]; 4.93% under setting [27]. The viability, T/C under setting [12] is 109%; the viability, T/C under setting [13] was 103%; the viability, T/C under setting [28] is 72.8%; the viability, T/C under setting [29] was 32.3%; the viability, T/C under setting [30] is 9.43%; the viability, T/C under setting [31] was 5.16%. In addition, the viability, T/C under setting [14] is 94.1%; the viability, T/C under setting [15] is 77.5%; the viability, T/C under setting [32] is 48.3%; the viability, T/C under setting [33] is 20.8%; the viability, T/C under setting [34] was 5.55%; the viability, T/C under setting [35] was 2.91%.

As to `COc1ccc([C@@H](O)c2cc(-c3ncnc4cc(N5CCOCC5)ccc34)c(F)cc2Cl)nn1` + NC1CCC(NC2CC2c2ccccc2)CC1, the IC50 reads like this: under setting [1], 8630 nM; under setting [2], 8980 nM; under setting [3], 7650 nM; under setting [4], 7270 nM; under setting [5], 4560 nM. Moreover, the viability, T/C runs as follows: under setting [6], 115%; under setting [7], 118%; under setting [16], 119%; under setting [17], 108%; under setting [18], 72.6%; under setting [19], 46.7%. For the same compound, the viability, T/C reads like this: under setting [8], 127%; under setting [9], 123%; under setting [20], 119%; under setting [21], 110%; under setting [22], 72.7%; under setting [23], 47.8%. The viability, T/C reads like this: under setting [10], 115%; under setting [11], 116%; under setting [24], 110%; under setting [25], 104%; under setting [26], 69.9%; under setting [27], 44%. For the same compound, the viability, T/C was 104% under setting [12]; 116% under setting [13]; 104% under setting [28]; 95.8% under setting [29]; 67.4% under setting [30]; 43.4% under setting [31]. Besides, the viability, T/C is, setting by setting: under setting [14], 89.8%; under setting [15], 81%; under setting [32], 84.7%; under setting [33], 81.6%; under setting [34], 56.6%; under setting [35], 35.8%.

What is called IC50 is the point on the concentration scale where inhibition reaches its midpoint. What is called viability, T/C is the result in the treated group divided by that in the control group, in per cent.
